Measured values: the NIST ThermoML archive (doi:10.1021/je100148h)

Test: xn = mol fraction of the nth substance listed
Conditions: Fluid (supercritical or subcritical phases), Burnett expansion method

CCC [propane] + O=C=O
Conditions	mass density [kg/m3]
319.99 K, 766.06 kPa, x2 = 0.8017	13.1764
320 K, 410.29 kPa, x2 = 0.8017	6.9285
320 K, 561.41 kPa, x2 = 0.8017	9.5546
320 K, 1040.9 kPa, x2 = 0.8017	18.1699
320 K, 1137.2 kPa, x2 = 0.5158	20.5385
320 K, 1406.4 kPa, x2 = 0.8017	25.056
320 K, 1885.5 kPa, x2 = 0.8017	34.5507
320 K, 2500.6 kPa, x2 = 0.8017	47.6423
320 K, 3266.5 kPa, x2 = 0.8017	65.693
320.01 K, 158.39 kPa, x2 = 0.8017	2.6416
320.01 K, 177.71 kPa, x2 = 0.5158	2.9791
320.01 K, 217.81 kPa, x2 = 0.8017	3.6431
320.01 K, 244.02 kPa, x2 = 0.5158	4.1102
320.01 K, 299.21 kPa, x2 = 0.8017	5.0239
320.01 K, 334.43 kPa, x2 = 0.5158	5.6704
320.01 K, 457.2 kPa, x2 = 0.5158	7.8226
320.01 K, 622.82 kPa, x2 = 0.5158	10.7917
320.01 K, 844.37 kPa, x2 = 0.5158	14.8878
320.01 K, 1518.1 kPa, x2 = 0.5158	28.332
320.01 K, 1999.6 kPa, x2 = 0.5158	39.0832
320.01 K, 2584 kPa, x2 = 0.5158	53.9126
329.98 K, 579.89 kPa, x2 = 0.8017	9.5517
329.99 K, 791.85 kPa, x2 = 0.8017	13.1719
329.99 K, 1457.4 kPa, x2 = 0.8017	25.0477
329.99 K, 3418.1 kPa, x2 = 0.8017	65.6701
330 K, 308.75 kPa, x2 = 0.8017	5.0223
330 K, 423.55 kPa, x2 = 0.8017	6.9261
330 K, 1958.2 kPa, x2 = 0.8017	34.5379
330 K, 2604.9 kPa, x2 = 0.8017	47.625
330 K, 4401.1 kPa, x2 = 0.8017	90.5446
330.01 K, 163.4 kPa, x2 = 0.8017	2.6407
330.01 K, 183.36 kPa, x2 = 0.5158	2.9774
330.01 K, 224.73 kPa, x2 = 0.8017	3.6418
330.01 K, 251.86 kPa, x2 = 0.5158	4.1078
330.01 K, 345.31 kPa, x2 = 0.5158	5.667
330.01 K, 472.35 kPa, x2 = 0.5158	7.8181
330.01 K, 644.04 kPa, x2 = 0.5158	10.7856
330.01 K, 874.2 kPa, x2 = 0.5158	14.879
330.01 K, 1077.1 kPa, x2 = 0.8017	18.1629
330.01 K, 1179.4 kPa, x2 = 0.5158	20.5259
330.01 K, 1578.5 kPa, x2 = 0.5158	28.3153
330.01 K, 2086.8 kPa, x2 = 0.5158	39.0593
330.01 K, 2711.7 kPa, x2 = 0.5158	53.8795
330.01 K, 3442.6 kPa, x2 = 0.5158	74.3214
339.99 K, 598.29 kPa, x2 = 0.8017	9.5479
339.99 K, 817.54 kPa, x2 = 0.8017	13.1668
339.99 K, 1508.1 kPa, x2 = 0.8017	25.0378
340 K, 231.59 kPa, x2 = 0.8017	3.6405
340 K, 436.79 kPa, x2 = 0.8017	6.9234
340 K, 2030.2 kPa, x2 = 0.8017	34.5251
340 K, 2708.2 kPa, x2 = 0.8017	47.606
340 K, 3567.9 kPa, x2 = 0.8017	65.643
340 K, 4621.3 kPa, x2 = 0.8017	90.5058
340.01 K, 168.38 kPa, x2 = 0.8017	2.6397
340.01 K, 189.01 kPa, x2 = 0.5158	2.9763
